# Laboratory results published in ChEMBL document CHEMBL5365393, “Comprehensive coverage on anti-mycobacterial endeavour reported during 2022” (Eur J Med Chem, 2023).
# Where “and” joins values, the source holds several entries; their conditions need not be identical. Identical values can stand only once. Calls of active or inactive are those of the source. No cut-off for these calls is given here.
# Experiments:
# [1] = tested on: Mycobacterium tuberculosis; assay: Antibacterial activity against Mycobacterium tuberculosis H37Rv assessed as inhibition of bacterial growth; assay type: functional, organism-based
# [2] = tested on: Mycobacterium tuberculosis; assay: Antibacterial activity against Mycobacterium tuberculosis H37Rv ATCC 27294 assessed as inhibition of bacterial growth; assay type: functional
# [3] = tested on: Mycobacterium tuberculosis; assay: Antibacterial activity against Mycobacterium tuberculosis assessed as inhibition of bacterial growth by microplate alamar blue assay; assay type: functional
# [4] = Cytotoxicity against human WI-38 cells assessed as inhibition of cell growth by MTT assay; assay type: toxicity, cell-based
# [5] = tested on: Mycobacterium tuberculosis; assay: Antibacterial activity against drug susceptible Mycobacterium tuberculosis H37Rv assessed as inhibition of bacterial growth; assay type: functional
# [6] = tested on: Mycobacterium tuberculosis; assay: Antibacterial activity against Mycobacterium tuberculosis H37Rv assessed as inhibition of bacterial growth by microplate alamar blue assay; assay type: functional
# [7] = tested on: Mycobacterium tuberculosis; assay: Antibacterial activity against Mycobacterium tuberculosis H37Rv assessed as bacterial growth inhibition at less than 6.25 ug/ml relative to control; assay type: functional; settings: read-out: GI
# RAW264.7 = assay: Cytotoxicity against mouse RAW264.7 cells assessed as cell growth inhibition by MTT assay relative to control; assay type: functional
# [8] = tested on: Mycobacterium tuberculosis; assay: Antibacterial activity against drug-sensitive Mycobacterium tuberculosis assessed as inhibition of bacterial growth; assay type: functional
# [9] = target: T1, Enoyl-[acyl-carrier-protein] reductase [NADH] (Mycobacterium tuberculosis, UniProt P9WGR1); assay: Inhibition of Mycobacterium tuberculosis InhA
# T1 sequence (P9WGR1 whole entry): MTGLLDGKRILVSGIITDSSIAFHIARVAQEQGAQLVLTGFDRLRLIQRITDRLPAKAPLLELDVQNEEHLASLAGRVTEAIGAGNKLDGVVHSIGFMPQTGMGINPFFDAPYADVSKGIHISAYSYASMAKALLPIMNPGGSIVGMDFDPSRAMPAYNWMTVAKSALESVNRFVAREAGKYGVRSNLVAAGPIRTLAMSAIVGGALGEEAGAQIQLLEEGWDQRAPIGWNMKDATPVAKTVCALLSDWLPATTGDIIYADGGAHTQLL
# [10] = tested on: Mycobacterium tuberculosis; assay: Antibacterial activity against Mycobacterium tuberculosis assessed as inhibition of bacterial growth; assay type: functional, organism-based
# [11] = tested on: Mycobacterium tuberculosis; assay: Antibacterial activity against wild-type Mycobacterium tuberculosis H37Rv assessed as inhibition of bacterial growth; assay type: functional
# [12] = Microsomal stability in human liver microsomes assessed as half life at 0.1 uM incubated for 60 mins in presence of NADPH by LC-MS/MS analysis; assay type: ADME, Microsome
# [13] = tested on: Mycobacterium tuberculosis; assay: Antibacterial activity against Mycobacterium tuberculosis H37Rv assessed as inhibition of bacterial growth by resazurin dye based colorimetric analysis; assay type: functional, organism-based
# Thymidylate kinase = target: T2, Thymidylate kinase (Mycobacterium tuberculosis, UniProt P9WKE1); assay: Inhibition of Mycobacterium tuberculosis TMPK
# T2 sequence (P9WKE1 whole entry): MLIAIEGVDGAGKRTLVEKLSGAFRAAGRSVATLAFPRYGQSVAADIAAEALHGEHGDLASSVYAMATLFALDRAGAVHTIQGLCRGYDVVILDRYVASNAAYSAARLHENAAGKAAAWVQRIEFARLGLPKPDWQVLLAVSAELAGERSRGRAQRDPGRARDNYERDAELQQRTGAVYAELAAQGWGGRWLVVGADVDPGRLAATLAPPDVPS
# DNA gyrase = DNA gyrase (Escherichia coli, UniProt P0AES4+P0AES6); assay: Inhibition of Escherichia coli DNA gyrase; assay type: protein-complex assay
# [14] = tested on: Mycobacterium tuberculosis; assay: Antibacterial activity against Mycobacterium tuberculosis H37Ra assessed as inhibition of bacterial growth; assay type: functional
# Pantothenate synthetase = target: T3, Pantothenate synthetase (Mycobacterium tuberculosis, UniProt P9WIL5); assay: Inhibition of Mycobacterium tuberculosis H37Ra pantothenate synthetase
# T3 sequence (P9WIL5 whole entry): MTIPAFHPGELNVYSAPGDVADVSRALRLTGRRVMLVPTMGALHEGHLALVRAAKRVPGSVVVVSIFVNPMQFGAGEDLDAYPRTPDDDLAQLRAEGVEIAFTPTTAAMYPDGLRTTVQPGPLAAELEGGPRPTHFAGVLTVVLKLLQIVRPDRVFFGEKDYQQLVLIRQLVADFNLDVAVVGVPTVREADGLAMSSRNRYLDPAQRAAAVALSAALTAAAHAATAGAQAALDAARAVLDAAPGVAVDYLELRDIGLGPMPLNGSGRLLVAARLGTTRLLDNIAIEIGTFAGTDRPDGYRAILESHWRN
# [15] = Inhibition of Mycobacterium tuberculosis salicylate synthase using chorismic acid as substrate in presence of MgCl2 by fluorimetric assay
# [16] = Inhibition of Mycobacterium tuberculosis H37Rv mc2 6206 HadA/B expressed in Escherichia coli using trans-2-hexadecenoyl-coenzyme A as substrate by spectrophotometric analysis
# [17] = tested on: Mycobacterium tuberculosis; assay: Inhibition of Mycobacterium tuberculosis H37Rv mc2 6206 HadB/C expressed in Escherichia coli using trans-2-hexadecenoyl-coenzyme A as substrate by spectrophotometric analysis
# [18] = tested on: Mycobacterium tuberculosis; assay: Antibacterial activity against Mycobacterium tuberculosis H37Rv infected in Macrophage assessed as reduction in bacterial growth; assay type: functional
# [19] = Selectivity index, ratio of IC50 for cytotoxicity against African green monkey Vero cells to MIC for antibacterial activity against Mycobacterium tuberculosis H37Rv; assay type: toxicity, cell-based; settings: read-out: Selectivity Index
# [20] = Cytotoxicity against African green monkey Vero cells assessed as inhibition of cell growth; assay type: toxicity, cell-based; settings: African green monkey (Chlorocebus sabaeus)
# Staphylococcus aureus = assay: Antibacterial activity against methicillin-resistant Staphylococcus aureus 693E assessed as inhibition of bacterial growth by broth microdilution assay; assay type: functional
# [21] = tested on: Mycobacterium tuberculosis; assay: Antibacterial activity against Mycobacterium tuberculosis H37Rv assessed as inhibition of bacterial growth by broth microdilution assay; assay type: functional
structure (smiles),measurement,setting,value
Cc1cc(C(=O)N2CCN(c3nc(=O)c4cc(C(F)(F)F)cc([N+](=O)[O-])c4s3)CC2)c2cc(Cl)ccc2n1,MIC,[1],0.12 µg/mL
O=C1Nc2ccccc2/C1=N\OCc1cn(Cc2ccc(F)cc2)nn1,MIC,[2],0.78 µg/mL
O=C(N/N=C1\C(=O)N(Cc2ccccc2)c2ccccc21)c1cnc2cc(Cl)ccc2c1O,MIC,[3],0.06 µg/mL
same,IC50,[4],36600 nM
COC(=O)c1cc(-c2ccc(OC)c(NC(=O)c3cc(-c4cccc(Cl)c4)nc4ccccc34)c2)on1,MIC,[5],0.12 µg/mL
CCOC(=O)C1=C(C)NC(=O)NC1c1ccccc1OCc1cn(CC(=O)c2ccc(Cl)cc2)nn1 (stereo not drawn),MIC,[6],6.13 µM
C[C@H]1S[C@]2(CC[C@@H](c3ccccc3)CC2)N(NC(=O)[C@@H](O)c2ccccc2)C1=O,MIC,[1],< 6.25 µg/mL
same,inhibition of growth at 6.25 µg/mL,[7],98%
CN1CCN(C(=O)c2cc3ccccc3[nH]2)CC1,MIC,[6],3.12 µg/mL
same,growth inhibition (GI),RAW264.7,32%
O=C1C(Cl)=C(Cl)C2(OC(c3c(Cl)cccc3Cl)=NN2c2ccccc2)c2ccccc21 (stereo not drawn),MIC,[1],15.6 µg/mL
Cc1cc(C(=O)N2CCN(c3nc(=O)c4cc(Cl)cc([N+](=O)[O-])c4s3)CC2)c2cc(Cl)ccc2n1,MIC,[1],0.06 µg/mL
CC(=O)c1ccc(N2CN=c3s/c(=C/c4ccco4)c(=O)n3C2)cc1,MIC,[8],2.49 µg/mL
COc1ccc(-c2nn(-c3ccc([N+](=O)[O-])cc3[N+](=O)[O-])c(N)c2C#N)cc1Oc1cccc(Br)c1C#N,MIC,[8],0.98 µg/mL
same,IC50,[9],290 nM
Cc1cc(N=Nc2ccc(O)cc2O)ccc1C(C)C,IC50,[10],620 nM
Cc1cc(C(=O)N2CCN(c3nc(=O)c4cc(F)cc([N+](=O)[O-])c4s3)CC2)c2cc(Br)ccc2n1,MIC,[1],0.06 µg/mL
CS(=O)(=O)N1CCN(c2ccc(N3C[C@H](CNC(=O)c4ccc([N+](=O)[O-])o4)OC3=O)cc2F)CC1,MIC,[1],1.1 µg/mL
O=c1/c(=C\c2ccc(Cl)cc2)sc2n1CN(C1=NS(=O)(=O)c3ccccc31)CN=2,MIC,[8],2.28 µg/mL
CC(C)/N=c1\cc2n(-c3ccccc3)c3ccccc3nc-2cc1Nc1ccc(N2CCN(C)CC2)c(F)c1,MIC,[1],0.625 µg/mL
same,MIC,[11],0.08 µg/mL
Cc1cc(C(=O)N2CCN(c3nc(=O)c4cc(Br)cc([N+](=O)[O-])c4s3)CC2)c2cc(Cl)ccc2n1,MIC,[1],0.12 µg/mL
Cc1cc(C(=O)N2CCN(c3nc(=O)c4cc(Cl)cc([N+](=O)[O-])c4s3)CC2)c2cc(Br)ccc2n1,MIC,[1],0.06 µg/mL
CC(=O)c1c(C)n(-c2ccc(-c3ccccc3)cc2)c2ccc(O)c(CN3CCCCC3)c12,MIC,[6],0.063 µg/mL
same,half-life at 0.1 µM,[12],20.7 min
NNC(=O)c1ccncc1 [ISONIAZID],MIC,[1],15.6 µg/mL
same,MIC,[6],1.6 µg/mL
same,IC50,[13],1.6 µg/mL
CC[C@@H](CO)NCCN[C@@H](CC)CO [ETHAMBUTOL],MIC,[6],7.64 µM and 1.6 µg/mL
CO[C@H]1/C=C/O[C@@]2(C)Oc3c(C)c(O)c4c(O)c(c(/C=N/N5CCN(C)CC5)c(O)c4c3C2=O)NC(=O)/C(C)=C\C=C\[C@H](C)[C@H](O)[C@@H](C)[C@@H](O)[C@@H](C)[C@H](OC(C)=O)[C@@H]1C [RIFAMPIN],MIC,[1],0.97 µg/mL
Cc1cn([C@H]2C[C@H](O)[C@@H](COP(=O)(O)O)O2)c(=O)[nH]c1=O [THYMIDINE MONOPHOSPHATE],IC50,Thymidylate kinase,70 nM
O=C(/C=C/c1ccccc1)c1ccc(Br)cc1,MIC,[6],6.25 µg/mL
Clc1ccc(Cn2cc(COc3ccc(C4=NCCO4)cc3)nn2)cc1,IC50,[1],1600 nM
same,IC50,DNA gyrase,83 nM
CCCCCCc1ccc(-c2cn(CC(=O)Cn3ccnc3[N+](=O)[O-])nn2)cc1,MIC,[1],65.3 µM
CC1/C(=N\NC(N)=[Se])Nc2ccccc21 (stereo not drawn),MIC,[6],1.6 µg/mL
O=C(Nc1ccc(C(=O)O)c(O)c1)c1cncc(Cl)n1,MIC,[1],3.13 µg/mL
COc1ccc(NC(=O)CCCCCN/C(C)=C2/C(=O)C=C3Oc4c(C(C)=O)c(O)c(C)c(O)c4[C@]3(C)C2=O)cc1OC,MIC,[1],5.3 µM
CC(C)(C)OC(=O)N1CCN(c2ccc(N3C[C@H](CNC(=O)c4ccc([N+](=O)[O-])o4)OC3=O)cc2F)CC1,MIC,[1],2.34 µg/mL
CC(=O)c1c(C)n(-c2ccc(C3CCNCC3)cc2)c2ccc(O)c(CN3CCCCC3)c12,MIC,[6],0.125 µg/mL
same,half-life at 0.1 µM,[12],58 min
CC(=O)NC[C@H]1CN(c2ccc(N3CCOCC3)c(F)c2)C(=O)O1 [LINEZOLID],MIC,[1],1 µg/mL
C/C(=N\N=C(\N/N=C(\C)c1ccc(Cl)cc1)NC(=S)Nc1cccc2ccccc12)c1ccc(Cl)cc1,MIC,[1],0.78 µM
O=C(/C=C/c1ccccc1[N+](=O)[O-])c1ccc(Br)cc1,MIC,[6],6.25 µg/mL
Cc1nc2cc(C(F)(F)F)ccc2n1-c1ncc(C(F)(F)F)s1,MIC,[1],0.28 µM
Cc1cc(C(=O)N2CCN(c3nc(=O)c4cc(Br)cc([N+](=O)[O-])c4s3)CC2)c2cc(Br)ccc2n1,MIC,[1],0.12 µg/mL
O=C(/C=C/c1cccc(Oc2ccccc2)c1)c1ccc(Br)cc1,MIC,[6],6.25 µg/mL
Cc1nc2sc3ccccc3n2c1C(=O)N1CCN(Cc2cn(-c3ccc(Cl)cc3Cl)nn2)CC1,IC90,[14],15200 nM
same,IC50,Pantothenate synthetase,2030 nM
same,IC50,[13],1.6 µg/mL
O=C(/C=C/c1cc(Cl)ccc1O)c1ccc(Br)cc1,MIC,[6],6.25 µg/mL
N#Cc1cc(OCCOc2ccccc2)cc(-c2ccc(C(=O)O)o2)c1,IC50,[15],12100 nM
C/C(=N\NC(=S)Nc1cccc(Cl)c1Cl)c1nc2cc([N+](=O)[O-])ccc2[nH]1,MIC,[1],62.5 µg/mL
CS(=O)(=O)NC(=O)CCc1cn(-c2ccc(Br)cc2)nc1-c1ccc(Cl)cc1,IC50,[16],130 nM
same,inhibition,[17],inactive
O=C(c1ccc(Cl)cc1)C1[C@H]2CCCN2[C@]2(C(=O)Nc3ccc(Cl)cc32)C12c1ccccc1-n1c2nc2ccccc2c1=O (stereo partly drawn),MIC,[1],1.56 µg/mL
Cc1ccc(C(=O)C2[C@H]3CCCN3[C@]3(C(=O)Nc4ccccc43)C23c2ccccc2-n2c3nc3ccccc3c2=O)cc1 (stereo partly drawn),MIC,[1],1.56 µg/mL
O=C1C(C#Cc2ccccc2)=C(c2ccc(C(F)(F)F)cc2)C(=O)N1Cc1ccccn1,MIC,[1],0.92 µg/mL
same,Activity,[18],0.47 log10CFU
same,selectivity ratio,[19],69.6
same,IC50,[20],> 64 µg/mL
CCOC(=O)Cc1csc(N2C(=O)CSC2c2ccc(Br)cc2)n1 (stereo not drawn),MIC,[8],0.48 µg/mL
same,IC50,[9],1060 nM
CCOC(=O)Cc1csc(N2C(=O)CSC2c2ccc(OC)cc2)n1 (stereo not drawn),MIC,[8],0.12 µg/mL
same,IC50,[9],1300 nM
Cc1cc(C(=O)N2CCN(c3nc(=O)c4cc(C(F)(F)F)cc([N+](=O)[O-])c4s3)CC2)c2cc(Br)ccc2n1,MIC,[1],0.12 µg/mL
CO[C@H]1C[C@@]2(C)C=C[C@H]3[C@H]4O[C@]2(/C(C)=C/[C@@H](C)[C@@H]([C@@H](C)O)OC1=O)[C@@H]3[C@H](O)[C@@H](C)[C@H]4OC(=O)c1ccc[nH]1,MIC,Staphylococcus aureus,0.6 µM
same,MIC,[21],12.5 µM
